Reference: patent publication US5484940A, “Substituted 3-indolyl-5-pyrazolone compounds” (priority 1994, dated 1996)

How the values were obtained:
rat cortical neurons = experiment: Inhibition of toxicity of β-amyloid peptide to rat neuronal cells (alamarBlue); format: cell-based; conditions: 10 to 20 μM β-amyloid peptide, 2-3 days; on average where more than one duplicate experiment; compound concentration not stated
Procedure, shortened: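 Primary cortical neurons from E18 rat fetuses were cultured in serum-free DMEM/B27 at 37° C, 10% CO2. Medium was replaced with DMEM/N2 containing 10 to 20 μM β-amyloid peptide and test compound, and cultures were kept 2-3 days. Neuronal survival was quantified by reduction of 10% alamarBlue.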

[1] = system: β-amyloid peptide production; experiment: Cellular screen for inhibitors of β-amyloid production (ELISA, 293 751 SWE cells); format: cell-based, human; conditions: 2 h pretreatment + 2 h, normalized for cytotoxicity (MTT), concentration not given
Procedure, shortened: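 293 751 SWE cells (K293 stably expressing APP751 Swedish mutant) pretreated 2 h with compound, then fresh compound-containing medium for 2 h more at 37 °C. Secreted β-amyloid in conditioned medium quantified by sandwich ELISA (capture 266 anti-Aβ13-28, labelled 6C6 anti-Aβ1-16) against a standard curve as ng/mL; mean ± SD of ≥6 replicates.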

human cortical neurons = experiment: Inhibition of toxicity of β-amyloid peptide to human neuronal cells (alamarBlue); format: cell-based; conditions: 50 μM β-amyloid peptide, 2-3 days; on average where more than one duplicate experiment; compound concentration not stated
Procedure, shortened: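 Primary human cortical neurons, cultured in MEM/B27, were exposed to test compound plus 50 μM β-amyloid peptide in MEM for 2-3 days at 37 °C. Neuronal survival was quantified by reduction of 10% alamarBlue in MEM (fluorometric/colorimetric metabolic indicator).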

293 751 SWE cells = experiment: Cytotoxicity (MTT) in 293 751 SWE cells; format: cell-based, human; conditions: concentration not given
Procedure, shortened: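 Used HEK293 cells stably expressing APP751 carrying the Swedish double mutation (K651N/M652L), plated at 1.5-2.5×10^4 cells/well in DMEM + 10% FBS. MTT was added to a final 1 mg/mL for 1 h at 37 °C, then lysed in SDS/DMF (pH 4.7) overnight. Viability was read as OD562 − OD650.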

Compound: COc1ccc2c(c1)c(CC1=NN(c3cccc(C(F)(F)F)c3)C(=O)C1)c(C)n2C(=O)c1ccc(Cl)cc1 [Example 25, 3-[1-(4-chlorobenzoyl)-5-methoxy-2-methyl-3-indolylmethyl]-1-(3-trifluoromethylphenyl)-5-pyrazolone]
- inhibition of the toxicity of β-amyloid peptide to rat neuronal cells (rat cortical neurons): at least 10%
- reduction of β-amyloid peptide production as compared to control [1]: at least 20%
- inhibition of the toxicity of β-amyloid peptide to human neuronal cells (human cortical neurons): at least 25%
- cytotoxic effect on the 293 751 SWE cells (293 751 SWE cells): did not have a significant cytotoxic effect
